Measured values as given in a melting point compilation (Tetko et al.; mined from patent text by program, amines drawn as free bases though some values may be those of a salt).
Residues, ends and D or L forms follow the SMILES beside them. *: point of attachment. Boc = CC(C)(C)OC(=O)*; OBn = c1ccc(CO*)cc1; Bn = c1ccc(C*)cc1

Work on `Nc1ncc(Br)nc1OCC1CCCC1` yielded a melting point of 78 to 79 °C.
With `O=C1c2ccccc2C(=O)N1CC(=CF)CBr` the melting point was 86 to 87 °C.
`Cc1ccnc(CSCCNc2ncc(Cc3cccnc3)c(=O)[nH]2)c1Br` showed a melting point of 81 to 85 °C.
`O=C(CS(=O)c1ccc(Cl)cc1)c1ccccc1` (configuration not stated) showed a melting point of 129 to 130 °C.
Work on `OCCc1c[nH]c2cc(-c3cc(Nc4ccc(N5CCOCC5)cn4)c4nccn4c3)ccc12` yielded a melting point of 159 to 161 °C.
`CCCCc1c(C(=O)OCC)cc(O)c2ccc(OC)cc12` showed a melting point of 112 to 115 °C.
Work on `CCCCOC(=O)c1ccc2ccc(C(=O)O)nc2c1OC(=O)C(C)(C)C` yielded a melting point of 158 °C.
For `CCOC(=O)c1cnn2c1c(NC1CCCCCC1)nc1ccccc12`, the melting point was 114 to 115 °C.
`CC(=O)Nc1cc([N+](=O)[O-])ccc1O` showed a melting point of 283 to 284 °C.
For `O=C1N(c2ccc(Br)cc2F)C(=S)C2CCCCC12O` (configuration not stated), the melting point was 163 to 164 °C.
For `Cc1c2c(nn1C)c(N)nc1ccccc12`, the melting point was over 250 °C.
Work on `Nc1ccccc1C(=O)OCCN1CCN(c2cccc(Cl)c2)CC1` yielded a melting point of 76 °C.
`O=C(c1ccc[nH]1)C1CCCCC1` showed a melting point of 83 to 84 °C.
With `COCn1c(-c2ncc(CO)s2)cc2cccc(N(C)S(=O)(=O)c3cccs3)c21` the melting point was 156 to 157 °C.
Molecule `CC(C)(C)CNc1cc(NCC(C)(C)C)nc(N2CCNCC2)n1` has a melting point of 132 to 136 °C.
`COC(=O)C1Oc2ccccc2Cc2cccc(Cl)c2O1` (configuration not stated) gave a melting point of 107 to 108 °C.
Work on `C=CCOc1ccc(C(=O)O)cc1` yielded a melting point of 163 to 164 °C.
In the case of `O=C(O)c1nn(-c2c(Cl)cc(C(F)(F)F)cc2Cl)cc1OC(F)F`, the melting point is reported as 180 to 183 °C.
`O=C(O)C1CCC2CCC(=O)N21` (configuration not stated) gave a melting point of 145 to 148 °C.
In the case of `O=[N+]([O-])c1ccc(S(=O)(=O)c2ncc(Cl)cn2)s1`, the melting point is reported as 144 to 146 °C.
With `O=C(O)c1cccc2nc3n(c12)CCC3` the melting point was 310 to 312 °C.
`O=C(O)CCc1oc2cc(O)ccc2c(=O)c1C(=O)O` showed a melting point of 218 to 219 °C.
`COc1ccc(OC)c(S(=O)(=O)NC(=O)C(C)Oc2cc(-n3nc(C)n(C(F)F)c3=O)c(F)cc2Cl)c1` (configuration not stated) gave a melting point of 168 to 172 °C.
`CC1CCc2ccc(O)cc2O1` (configuration not stated) gave a melting point of 94 to 95 °C.
In the case of `Cc1cc(Cl)c(S(C)(=O)=O)cc1C(=O)O`, the melting point is reported as 180 to 183 °C.
With `CCC(Oc1cc(OC)ccc1C(=O)c1ccc(OCc2nc(-c3ccccc3)oc2C)cc1)C(=O)O` (configuration not stated) the melting point was 161 to 162 °C.
Work on `COc1ccc(Cl)cc1N1CCN(CCCNC(=O)c2c(-c3ccccc3)noc2C)CC1` yielded a melting point of 139 to 142 °C.
Work on `O=C1NCCc2c1c1ccccc1n2CC1CCCC1` yielded a melting point of 179 to 181 °C.
Work on `c1ccc(CON=C2CC(=NOCc3ccccc3)c3ccccc3-c3ccccc32)cc1` yielded a melting point of 112 °C.
In the case of `Cc1cccc(C(=O)NC(Nc2c(Nc3cccnc3)c(=O)c2=O)C(C)(C)Cc2ccccc2)c1` (configuration not stated), the melting point is reported as 234 to 235 °C.
Work on `CCCCCCCCCCCCCC(=O)c1c(O)cc(C)c(O)c1CCC` yielded a melting point of 62 °C.
`CC1(C)C2CC[C@]1(C)C(=O)C(C(=O)Nc1ccc([N+](=O)[O-])cc1)C2=O` (some centres not stated) gave a melting point of 168 to 170 °C.
`CCCCCCCCCCC(=O)N[C@H]1CCCNC(=O)C1` gave a melting point of 91 to 92 °C.
Work on `CCOC(=O)c1cn(C2CC2)c2c(F)c(N3CC(OS(C)(=O)=O)C3)c(F)cc2c1=O` yielded a melting point of 191 to 193 °C.
`Fc1ccc2c(c1)nc(CC(F)(F)F)n2C1CCNCC1` gave a melting point of 135 °C.
Work on `CS(=O)(=O)c1ccc([C@@H](CC2CCCC2)C(=O)Nc2nc3ccccc3s2)cc1` yielded a melting point of 100 to 105 °C.
Molecule `CC(C)(C)Sc1c(CC(C)(C)C(=O)O)n(Cc2ccc(Cl)cc2)c2ccc(OCc3cccs3)cc12` has a melting point of 204 to 205 °C.
With `CCOC(=O)c1nc(-c2ccccc2)nc2c1c1ccc(Cl)cc1n2C` the melting point was 139 to 140 °C.
Work on `CC(C)(CO)c1ccc(Br)cc1` yielded a melting point of 46.5 to 48 °C.
`C=C(c1ccc(I)cc1)C(O)(Cn1cncn1)c1ccccc1Cl` (configuration not stated) showed a melting point of 128 to 130 °C.
`Cc1nccc(N2CCC(CN3CCN(S(=O)(=O)c4ccc(C(F)(F)F)cc4)CC3)CC2)n1` gave a melting point of 135 to 136 °C.
In the case of `CN(C)C(=O)C(C)(C)n1cc(-c2ccccc2)c(-c2ccccc2)n1`, the melting point is reported as 148 to 150 °C.
In the case of `Cc1ccc(S(=O)(=O)N2CCn3c(c(C(N)=O)c(Cl)c3-c3ccccc3)C2)cc1`, the melting point is reported as 188 to 190 °C.
In the case of `CC1(C)C(=O)N(c2ccc(C#N)c(C(F)(F)F)c2)C(=S)N1CCCO`, the melting point is reported as 149 to 150 °C.
In the case of `CCC(C)n1ncn(-c2ccc(N3CCN(c4ccc(O)cc4)CC3)cn2)c1=O` (configuration not stated), the melting point is reported as 144 to 145 °C.
`Cc1ncc2c(n1)-c1ccc(Cl)cc1C(c1ccccc1Cl)=NC2` showed a melting point of 193 to 197 °C.
`O=S(=O)(/C=C/c1ccc(Cl)cc1)Nc1ccccc1Cl` showed a melting point of 107 to 109 °C.
With `COC(=O)/C=C/c1ccc(-c2nc(NC(C)=O)sc2Cc2ccc(S(C)(=O)=O)cc2)cc1` the melting point was 217 to 218 °C.
Molecule `CC(C)c1cn2ccccc2c1S(=O)(=O)c1ccc(OCC2CO2)cc1` (configuration not stated) has a melting point of 110 to 111 °C.
In the case of `COc1cc(C)c(OC)cc1C`, the melting point is reported as 108 to 110 °C.
In the case of `CCC(=O)C(=C1NCCCS1)[N+](=O)[O-]`, the melting point is reported as 77.5 to 79.5 °C.
In the case of `CCOC(=O)CCP(Br)(c1ccccc1)(c1ccccc1)c1ccccc1`, the melting point is reported as 150 °C.
`Oc1ccc(N2CCN(n3ccnc3)CC2)cc1` gave a melting point of 282 °C.
`CCN1c2ncc(CCc3ccc(NS(C)(=O)=O)cc3)cc2C(=O)N(C)c2ccc(Cl)nc21` gave a melting point of 199 to 204 °C.
In the case of `COC(=O)c1cnc(Cl)o1`, the melting point is reported as 35 to 50 °C.
Work on `Clc1nc2ccccc2cc1C=C1CCCC1` yielded a melting point of 84 to 86 °C.
`CC(C)(S)[C@@H]1C[C@H](CS)C(=O)N1` (relative stereo) gave a melting point of 159 to 161 °C.
With `Clc1cccc(N2CCN(Cc3ccc4ccccc4c3)CC2)c1` the melting point was 114 to 115 °C.
In the case of `Nc1ccccc1Oc1ccc2c(c1)OCC(=O)N2`, the melting point is reported as 149 to 150 °C.
Work on `Cc1ccc(C=Cc2ccc(Br)cc2)cc1` yielded a melting point of 215 °C.
With `CCCCCCCCCCCCCCCCSCC(O)COC(c1ccccc1)(c1ccccc1)c1ccccc1` (configuration not stated) the melting point was 61 to 62 °C.
In the case of `C=C(C)C(=O)Nc1ccc(O)c(C(=O)O)c1`, the melting point is reported as 218 °C.
With `Cc1ccc([N+](=O)[O-])cc1Nc1cc(Cl)ccn1` the melting point was 130 to 133 °C.
With `O=c1[nH]c(=Cc2ccc(OCc3ccccc3)cn2)c(=O)[nH]c1=Cc1ccccn1` the melting point was 248 to 250 °C.
With `COC1(c2ccco2)CC2=C(C=C1C(F)(F)F)N(C(=O)Nc1cccnc1)CC2` (configuration not stated) the melting point was 92 to 94 °C.
In the case of `COc1cccc(C23CCCC(C2)N(C)C3=O)c1` (configuration not stated), the melting point is reported as 68 to 70 °C.
In the case of `COc1ccc(-c2cc(=O)n(CC(C)C)nc2-c2ccc(OC)c(F)c2)cc1F`, the melting point is reported as 154 °C.
For `COc1ccc(Oc2ccc(C(=O)C(=O)c3ccc(Oc4ccc(OC)cc4)cc3)cc2)cc1`, the melting point was 121 to 122 °C.
`O=C(Cc1ccccc1[N+](=O)[O-])c1c(O)c2cccnc2n(-c2ccccc2)c1=O` gave a melting point of 194 to 195 °C.
Work on `CC1CNCC1NC(=O)OC(C)(C)C` (configuration not stated) yielded a melting point of 86.8 to 87 °C.
`CON1CCC2(CC1)C(O)=C(c1c(C)cc(C)cc1C)C(=O)N2OC1CCCCC1` showed a melting point of 115 to 118 °C.
`CCCCC1=C(C(=O)OCC)C(c2ccccc2Cl)c2c[nH]nc2N1` (configuration not stated) gave a melting point of 209 °C.
Molecule `CC(=O)Nc1cccc2c1CCN(C)C2` has a melting point of 138 to 139 °C.
In the case of `COc1cc(OC)nc(SCc2nc(C(F)(F)F)ccc2C(=O)O)n1`, the melting point is reported as 123 to 124 °C.
`CCCCN(CC(O)C(Cc1ccccc1)NC(=O)C(C)CS(C)(=O)=O)S(=O)(=O)c1ccc(OC)cc1` (configuration not stated) gave a melting point of 87 to 92 °C.
Molecule `COC(=O)c1ccc2occ(-c3ccc(SC)cc3)c2c1` has a melting point of 95 to 96 °C.
Molecule `CCn1c(N)c(C(=O)NC)c(=O)c2ccc(-c3ccc(CC(=O)O)cc3)nc21` has a melting point of 260 °C.
With `COc1cc(NS(=O)(=O)c2ccc(C)cc2)cc(OC)c1` the melting point was 103 to 104 °C.
`CC1(C)CC2(CC(C)(C)c3ccc(O)cc32)c2cc(O)ccc21` gave a melting point of 215 to 217 °C.
Molecule `Cc1cccc(-n2c(CF)nc3ccc(N)cc3c2=O)c1C` has a melting point of 189 to 192 °C.
In the case of `CCC(CC)(OC)c1ccc(Cl)c2nc3n(c12)CCCN3c1ccc(Cl)cc1Cl`, the melting point is reported as 124 to 125 °C.
Molecule `Cn1c(-c2ccc(Cl)cc2)cc(=O)c(C(=O)O)c1-c1ccc(Cl)cc1` has a melting point of 187 to 190 °C.
With `CCN(CC)CC1CCCN(CC(=O)N2c3ccccc3C(=O)Nc3cccnc32)C1` (configuration not stated) the melting point was 199 to 200 °C.
Molecule `CC(=O)OCc1cccc(C(C)C)c1NC(=O)CC1c2ccccc2Oc2ccccc21` has a melting point of 155 to 156 °C.
In the case of `FC(F)(F)c1ccccc1CC[C@H]1CN(Cc2ccccc2)CCN1Cc1ccccc1`, the melting point is reported as 77 to 82 °C.
`CC(=O)C1CCC2C3CCC4CC(O)(c5ccccc5)CCC4(C)C3CCC12C` (configuration not stated) showed a melting point of 182 to 184 °C.
`COc1ccc(C(=Cc2c(Cl)cncc2Cl)c2ccccc2)cc1OC1CCCC1` gave a melting point of 138 to 140 °C.
In the case of `O=c1[nH]c2cc(F)c(F)cc2c(=O)n1CCCN1CC=C(c2ccc(Cl)cc2)CC1`, the melting point is reported as 204 to 205 °C.
In the case of `CCCCC(=O)C(Cc1ccc(C#N)cc1)c1ccccc1` (configuration not stated), the melting point is reported as 70 °C.
`NC1=C(NC=O)C(=O)N2CCN=C2N1Cc1ccccc1` gave a melting point of 248 to 250 °C.
In the case of `CCOc1ccccc1-c1nc2nc(SC)ncc2c(=O)[nH]1`, the melting point is reported as 224 to 226 °C.
For `Cc1ccc(C(=O)OCn2ncc(=O)[nH]c2=O)cc1`, the melting point was 139 °C.
Molecule `CN1CCC(O)(c2cccc(Cl)c2F)C1` (single isomer, unassigned; (+)) has a melting point of 123 to 125 °C.
Work on `Cn1nc2c(-c3ccc(Cl)cc3Cl)cccc2c1C1=NCCO1` yielded a melting point of 162 to 167 °C.
In the case of `CC(C)CC(NC(=O)C(Cc1ccc(OCc2ccccc2)cc1)NC(=O)OC(C)(C)C)C(=O)OCc1ccccc1` (configuration not stated) (Boc-Tyr(Bn)-Leu-OBn; configuration not given here), the melting point is reported as 100 to 103 °C.
Molecule `Cc1cc(SCCc2ccc3sc(-c4ccc(C(F)(F)F)cc4)nc3c2)ccc1CCC(=O)O` has a melting point of 108 to 110 °C.
`O=C(CC1CCCC1)Nc1ccc2c(c1)C(=O)C(Br)CC2` (configuration not stated) showed a melting point of 162 to 164 °C.
`O=C(Nc1cccnc1NCC(O)c1ccccc1)c1ccc(Cl)cc1` (configuration not stated) gave a melting point of 157 to 159 °C.
Molecule `N#Cc1ccc2nc3c(c(=O)n2c1)SCC3` has a melting point of 261 to 263 °C.
`C=CC(=O)Oc1ccc(NS(=O)(=O)CC)cc1` showed a melting point of 99 to 100 °C.
Molecule `CN(C(=O)c1cccs1)c1cccc2cc(-c3nccs3)[nH]c12` has a melting point of 250 °C.
`CC(=O)C(=C1SCCCN1Br)[N+](=O)[O-]` gave a melting point of 101 to 104 °C.
